What follows are compounds tested against T1, human IDO1 (Homo sapiens, UniProt P14902) (assay: HEK Human IDO-1 inhibition assay (kynurenine readout, Ehrlich reagent, absorbance 490 nm)). Conditions: human IDO1/HEK293 cells, incubated 20 hours with compound; 500 nM reference standard = 100% inhibition.
T1 construct: expressed in transfected cells
Type: cell-based
Method: HEK293 cells were transfected with a pCDNA-based mammalian expression vector harboring human IDO1 cDNA (NM 002164.2) by electroporation. They were cultured in medium (DMEM with 10% FBS) containing 1 mg/ml G418 for two weeks. Clones of HEK293 cells that stably expressed human IDO1 protein were selected and expanded for IDO inhibition assay.
The human IDO1/HEK293 cells were seeded at 10,000 cells per 50 uL per well with RPMI/phenol red free media contains 10% FBS in a 384-well black wall clear bottom tissue culture plate (Matrix Technologies LLC) 100 nL of certain concentration of compound was then added to each well using ECHO liquid handling systems. The cells were incubated for 20 hours in 37° C. incubator with 5% CO2.
The compound treatments were stopped by adding Trichloroacetic Acid (Sigma-Aldrich) to a final concentration at 0.2%. The cell plate was further incubated at 50° C. for 30 minute. The equal volume supernatant (20 uL) and 0.2% (w/v) Ehrlich reagent (4-dimethylaminobenzaldehyde, Sigma-Aldrich) in glacial acetic acid were mixed in a new clear bottom 384-well plate. This plate was then incubated at room temperature for 30 minute. The absorbance at 490 nm was measured on Envision plate reader. Compound IC50 values were calculated using the counts of 500 nM of a reference standard treatment as one hundred percent inhibition, and counts of no compound but DMSO treatment as zero percent inhibition.

T1 sequence (P14902 whole entry): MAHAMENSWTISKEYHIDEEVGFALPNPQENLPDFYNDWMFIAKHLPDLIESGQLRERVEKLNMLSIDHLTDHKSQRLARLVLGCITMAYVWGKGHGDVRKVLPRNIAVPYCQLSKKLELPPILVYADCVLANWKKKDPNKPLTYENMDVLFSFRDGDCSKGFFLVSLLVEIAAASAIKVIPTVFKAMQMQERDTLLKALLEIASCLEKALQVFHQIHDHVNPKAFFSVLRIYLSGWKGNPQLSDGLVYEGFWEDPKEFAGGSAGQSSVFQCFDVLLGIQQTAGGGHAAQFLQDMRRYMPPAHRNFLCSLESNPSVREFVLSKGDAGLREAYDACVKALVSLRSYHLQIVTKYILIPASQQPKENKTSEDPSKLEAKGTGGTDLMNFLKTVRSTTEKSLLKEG

IC50 [nM]	Structure (SMILES)
≥ 100	CC(C)CN(c1ccc(OCC(=O)O)cc1NC(=O)Nc1cccnc1)C1CCCCC1 [Example 3, 2-(4-(cyclohexyl(isobutyl)amino)-3-(3-(pyridin-3-yl)ureido)phenoxy)acetic acid]
< 100	Cc1cc(NC(=O)Nc2cc(OCC(=O)O)ccc2N(CC(C)C)C2CCCCC2)on1 [Example 4, 2-(4-(cyclohexyl(isobutyl)amino)-3-(3-(3-methylisoxazol-5-yl)ureido)phenoxy)acetic acid]
≥ 100	CC(C)CN(c1ccc(OCC(=O)O)cc1NC(=O)Nc1ccncc1)C1CCCCC1 [Example 5, 2-(4-(cyclohexyl(isobutyl)amino)-3-(3-(pyridin-4-yl)ureido)phenoxy)acetic acid]
≥ 100	CC(C)CN(c1ccc(OCC(=O)O)cc1NC(=O)Nc1nncs1)C1CCCCC1 [Example 6, 2-(3-(3-(1,3,4-thiadiazol-2-yl)ureido)-4-(cyclohexyl(isobutyl)amino)phenoxy)acetic acid]
≥ 100	Cc1cc(NC(=O)Nc2cc(OCC(=O)O)ccc2N(CC(C)C)C2CCCCC2)no1 [Example 7, 2-(4-(cyclohexyl(isobutyl)amino)-3-(3-(5-methylisoxazol-3-yl)ureido)phenoxy)acetic acid]
≥ 100	CC(C)CN(c1ccc(OCC(=O)O)cc1NC(=O)Nc1nnc(C(F)(F)F)s1)C1CCCCC1 [Example 8, 2-(4-(cyclohexyl(isobutyl)amino)-3-(3-(5-(trifluoromethyl)-1,3,4-thiadiazol-2-yl)ureido)phenoxy) acetic acid]
≥ 100	CC(C)CN(c1ccc(OCC(=O)O)cc1NC(=O)Nc1ccc(N(C)C)cc1)C1CCCCC1 [Example 9, 2-(4-(cyclohexyl(isobutyl)amino)-3-(3-(4-(dimethylamino)phenyl)ureido)phenoxy)acetic acid]
≥ 100	CC(C)CN(c1ccc(OCC(=O)O)cc1NC(=O)Nc1ccon1)C1CCCCC1 [Example 10, 2-(4-(cyclohexyl(isobutyl)amino)-3-(3-(isoxazol-3-yl)ureido)phenoxy)acetic acid]
≥ 100	Cc1nnc(NC(=O)Nc2cc(OCC(=O)O)ccc2N(CC(C)C)C2CCCCC2)s1 [Example 11, 2-(4-(cyclohexyl(isobutyl)amino)-3-(3-(5-methyl-1,3,4-thiadiazol-2-yl)ureido)phenoxy)acetic acid]
≥ 100	CC(C)CN(c1ccc(OCC(=O)O)cc1NC(=O)Nc1nccs1)C1CCCCC1 [Example 12, 2-(4-(cyclohexyl(isobutyl)amino)-3-(3-(thiazol-2-yl)ureido)phenoxy)acetic acid]
≥ 100	CC(C)CN(c1ccc(OCC(=O)O)cc1NC(=O)Nc1ccc(Oc2ccccc2)cc1)C1CCCCC1 [Example 13, 2-(4-(cyclohexyl(isobutyl)amino)-3-(3-(4-phenoxyphenyl)ureido)phenoxy)acetic acid]
≥ 100	CC(C)CN(c1ccc(OCC(=O)O)cc1NC(=O)Nc1ccc(-c2cnco2)cc1)C1CCCCC1 [Example 14, 2-(4-(cyclohexyl(isobutyl)amino)-3-(3-(4-(oxazol-5-yl)phenyl)ureido)phenoxy)acetic acid]
≥ 100	CC(C)CN(c1ccc(OCC(=O)O)cc1NC(=O)Nc1ccc(OCc2ccccc2)cc1)C1CCCCC1 [Example 15, 2-(3-(3-(4-(benzyloxy)phenyl)ureido)-4-(cyclohexyl(isobutyl)amino)phenoxy)acetic acid]
≥ 100	CC(C)CN(c1ccc(OCC(=O)O)cc1NC(=O)N1CCc2ccccc21)C1CCCCC1 [Example 16, 2-(4-(cyclohexyl(isobutyl)amino)-3-(indoline-1-carboxamido)phenoxy)acetic acid]
< 100	CC(C)CN(c1ccc(OCC(=O)O)cc1NC(=O)Nc1ccc(F)cc1)C1CCCCC1 [Example 17, 2-(4-(cyclohexyl(isobutyl)amino)-3-(3-(4-fluorophenyl)ureido)phenoxy)acetic acid]
< 5	CC(C)CN(c1ccc(OCC(=O)O)cc1NC(=O)Nc1ccccc1F)C1CCCCC1 [Example 18, 2-(4-(cyclohexyl(isobutyl)amino)-3-(3-(2-fluorophenyl)ureido)phenoxy)acetic acid]
≥ 100	CC(C)CN(c1ccc(OCC(=O)O)cc1NC(=O)Nc1c(F)cccc1F)C1CCCCC1 [Example 19, 2-(4-(cyclohexyl(isobutyl)amino)-3-(3-(2,6-difluorophenyl)ureido)phenoxy)acetic acid]
< 5	CC(C)CN(c1ccc(OCC(=O)O)cc1NC(=O)Nc1cc(F)ccc1F)C1CCCCC1 [Example 20, 2-(4-(cyclohexyl(isobutyl)amino)-3-(3-(2,5-difluorophenyl)ureido)phenoxy)acetic acid]

IC50 [nM]	Structure (SMILES)
< 100	CC(C)CN(c1ccc(OCC(=O)O)cc1NC(=O)Nc1cc(Cl)ccc1F)C1CCCCC1 [Example 22, 2-(3-(3-(5-chloro-2-fluorophenyl)ureido)-4-(cyclohexyl(isobutyl)amino)phenoxy)acetic acid]
< 5	Cc1ccc(NC(=O)Nc2cc(OCC(=O)O)ccc2N(CC(C)C)C2CCCCC2)c(F)c1 [Example 23, 2-(4-(cyclohexyl(isobutyl)amino)-3-(3-(2-fluoro-4-methylphenyl)ureido)phenoxy) acetic acid]
≥ 100	CC(C)CN(c1ccc(OCC(=O)O)cc1NC(=O)Nc1ccc(F)c(Cl)c1F)C1CCCCC1 [Example 24, 2-(3-(3-(3-chloro-2,4-difluorophenyl)ureido)-4-(cyclo-hexyl(isobutyl)amino)phenoxy) acetic acid]
< 5	COc1ccc(NC(=O)Nc2cc(OCC(=O)O)ccc2N(CC(C)C)C2CCCCC2)c(F)c1 [Example 25, 2-(4-(cyclohexyl(isobutyl)amino)-3-(3-(2-fluoro-4-methoxyphenyl)ureido)phenoxy)acetic acid]
≥ 100	CC(C)CN(c1ccc(OCC(=O)O)cc1NC(=O)Nc1cccc(Cl)c1F)C1CCCCC1 [Example 26, 2-(3-(3-(3-chloro-2-fluorophenyl)ureido)-4-(cyclo-hexyl(isobutyl)amino)phenoxy) acetic acid]
≥ 100	CC(C)CN(c1ccc(OCC(=O)O)cc1NC(=O)Nc1cccc(C(F)(F)F)c1F)C1CCCCC1 [Example 27, 2-(4-(cylclohexyl(isobutyl)amino)-3-(3-(2-fluoro-3-(trifluoromethyl)phenyl)ureido)phenoxy)acetic acid]
≥ 100	Cc1c(F)cccc1NC(=O)Nc1cc(OCC(=O)O)ccc1N(CC(C)C)C1CCCCC1 [Example 28, 2-(4-(cyclohexyl(isobutyl)amino)-3-(3-(3-fluoro-2-methylphenyl)ureido)phenoxy)acetic acid]
< 100	COc1cc(F)c(NC(=O)Nc2cc(OCC(=O)O)ccc2N(CC(C)C)C2CCCCC2)cc1F [Example 29, 2-(4-(cyclohexyl(isobutyl)amino)-3-(3-(2,5-difluoro-4-methoxy-phenyl)ureido)phenoxy)acetic acid]
≥ 100	Cc1ccc(F)cc1NC(=O)Nc1cc(OCC(=O)O)ccc1N(CC(C)C)C1CCCCC1 [Example 30, 2-(4-(cyclohexyl(isobutyl)amino)-3-(3-(5-fluoro-2-methylphenyl)ureido)phenoxy)acetic acid]
< 100	CC(C)CN(c1ccc(OCC(=O)O)cc1NC(=O)Nc1ccc(F)c(F)c1)C1CCCCC1 [Example 31, 2-(4-(cyclohexyl(isobutyl)amino)-3-(3-(3,4-difluorophenyl)ureido)phenoxy)acetic acid]
≥ 100	CC(C)CN(c1ccc(OCC(=O)O)cc1NC(=O)Nc1cc(F)cc(F)c1)C1CCCCC1 [Example 32, 2-(4-(cyclohexyl(isobutyl)amino)-3-(3-(3,5-difluorophenyl)ureido)phenoxy)acetic acid]
< 100	Cc1ccc(NC(=O)Nc2cc(OCC(=O)O)ccc2N(CC(C)C)C2CCCCC2)cc1F [Example 33, 2-(4-(cyclohexyl(isobutyl)amino)-3-(3-(3-fluoro-4-methylphenyl)ureido)phenoxy)acetic acid]
≥ 100	COc1ccc(NC(=O)Nc2cc(OCC(=O)O)ccc2N(CC(C)C)C2CCCCC2)cc1F [Example 34, 2-(4-(cyclohexyl(isobutyl)amino)-3-(3-(3-fluoro-4-methoxyphenyl)ureido)phenoxy) acetic acid]
≥ 100	CC(C)CN(c1ccc(OCC(=O)O)cc1NC(=O)Nc1ccc(C(F)(F)F)c(F)c1)C1CCCCC1 [Example 35, 2-(4-(cyclohexyl(isobutyl)amino)-3-(3-(3-fluoro-4-(trifluoromethyl)phenyl)ureido)phenoxy)acetic acid]
< 100	CC(C)CN(c1ccc(OCC(=O)O)cc1NC(=O)Nc1ccc(Cl)c(F)c1)C1CCCCC1 [Example 36, 2-(3-(3-(4-chloro-3-fluorophenyl)ureido)-4-(cyclohexyl(isobutyl)amino)phenoxy)acetic acid]
≥ 100	CC(C)CN(c1ccc(OCC(=O)O)cc1NC(=O)Nc1cc(F)cc(Cl)c1)C1CCCCC1 [Example 37, 2-(3-(3-(3-chloro-5-fluorophenyl)ureido)-4-(cyclo-hexyl(isobutyl)amino)phenoxy) acetic acid]
≥ 100	Cc1cc(F)ccc1NC(=O)Nc1cc(OCC(=O)O)ccc1N(CC(C)C)C1CCCCC1 [Example 38, 2-(4-(cyclohexyl(isobutyl)amino)-3-(3-(4-fluoro-2-methylphenyl)ureido)phenoxy) acetic acid]

From US10689331B2, “IDO inhibitors” (Bristol-Myers Squibb Company, priority 2015, dated 2020)
